Data from ChEMBL document CHEMBL1773070, “Benzophenone-based derivatives: a novel series of potent and selective dual inhibitors of acetylcholinesterase and acetylcholinesterase-induced beta-amyloid aggregation” (Eur J Med Chem, 2011).

Key:
Cholinesterase = Cholinesterase (Homo sapiens, UniProt P06276); experiment: Inhibition of human BChE using butyrylthiocholine iodide as substrate by Ellman's method
Acetylcholinesterase = Acetylcholinesterase (Homo sapiens, UniProt P22303); experiment: Inhibition of human AChE using acetylthiocholine iodide as substrate by Ellman's assay
Chain of Acetylcholinesterase (P22303 whole entry): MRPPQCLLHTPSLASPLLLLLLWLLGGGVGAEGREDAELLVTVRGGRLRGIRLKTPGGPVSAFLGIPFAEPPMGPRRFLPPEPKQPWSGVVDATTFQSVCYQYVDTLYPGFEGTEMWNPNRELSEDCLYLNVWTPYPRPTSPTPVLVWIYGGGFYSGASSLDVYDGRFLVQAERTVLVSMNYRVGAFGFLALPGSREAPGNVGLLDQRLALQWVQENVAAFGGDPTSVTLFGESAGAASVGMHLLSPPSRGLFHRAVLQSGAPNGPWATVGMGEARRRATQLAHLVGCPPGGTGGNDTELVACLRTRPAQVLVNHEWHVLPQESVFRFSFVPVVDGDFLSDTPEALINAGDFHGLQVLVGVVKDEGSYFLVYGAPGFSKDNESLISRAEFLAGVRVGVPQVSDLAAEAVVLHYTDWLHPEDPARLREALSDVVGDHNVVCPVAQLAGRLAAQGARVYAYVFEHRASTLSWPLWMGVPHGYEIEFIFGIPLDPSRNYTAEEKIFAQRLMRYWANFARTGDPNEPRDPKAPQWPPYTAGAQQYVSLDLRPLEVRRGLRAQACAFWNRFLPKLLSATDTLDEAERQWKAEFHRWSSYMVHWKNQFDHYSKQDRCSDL

Chain of Cholinesterase (P06276 whole entry): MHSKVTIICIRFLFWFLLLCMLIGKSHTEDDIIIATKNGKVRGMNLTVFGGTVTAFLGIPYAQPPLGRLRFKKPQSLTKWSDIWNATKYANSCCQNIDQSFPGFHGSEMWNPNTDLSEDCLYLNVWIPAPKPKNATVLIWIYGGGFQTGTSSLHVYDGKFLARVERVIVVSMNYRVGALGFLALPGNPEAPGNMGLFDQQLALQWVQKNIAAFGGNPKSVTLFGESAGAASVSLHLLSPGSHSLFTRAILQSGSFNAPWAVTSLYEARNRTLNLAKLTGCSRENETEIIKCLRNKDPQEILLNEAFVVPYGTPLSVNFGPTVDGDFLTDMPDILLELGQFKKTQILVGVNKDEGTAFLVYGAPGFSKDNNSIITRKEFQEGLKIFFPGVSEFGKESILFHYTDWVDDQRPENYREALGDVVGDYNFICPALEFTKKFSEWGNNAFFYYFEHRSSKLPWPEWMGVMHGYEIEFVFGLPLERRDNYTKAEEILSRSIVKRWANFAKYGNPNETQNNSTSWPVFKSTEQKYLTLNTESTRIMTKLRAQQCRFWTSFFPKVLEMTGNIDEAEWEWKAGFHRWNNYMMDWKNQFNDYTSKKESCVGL

Row | Structure (SMILES) | IC50 (Cholinesterase) | IC50 (Acetylcholinesterase)
1 | CCN(CC)CC(=O)Nc1ccc(C(=O)c2ccc(CN(C)Cc3ccccc3)cc2)cc1 | 144 µM | 0.21 µM
2 | CN(Cc1ccccc1)Cc1ccc(C(=O)c2ccc(NC(=O)CN3CCCCC3)cc2)cc1 | 145 µM | 0.55 µM
3 | CN(Cc1ccccc1)Cc1ccc(C(=O)c2ccc(NC(=O)CN3CCOCC3)cc2)cc1 | 179 µM | 0.72 µM
4 | CN(Cc1ccccc1)Cc1ccc(C(=O)c2ccc(NC(=O)CCCCN3CCCCC3)cc2)cc1 | 68 µM | 0.217 µM
5 | CCN(CC)CCCOc1ccc(C(=O)c2ccc(CN(C)Cc3ccccc3)cc2)cc1 | 35 µM | 0.025 µM
6 | CN(Cc1ccccc1)Cc1ccc(C(=O)c2ccc(OCCCN3CCCCC3)cc2)cc1 | 11 µM | 0.024 µM
7 | CN(Cc1ccccc1)Cc1ccc(C(=O)c2ccc(OCCCN3CCOCC3)cc2)cc1 | 21 µM | 0.107 µM
8 | CN(Cc1ccccc1)Cc1ccc(C(=O)c2ccc(OCCCN3CCC(n4c(=O)[nH]c5ccccc54)CC3)cc2)cc1 | 39 µM | 0.068 µM
9 | CCN(CC)CCCCCOc1ccc(C(=O)c2ccc(CN(C)Cc3ccccc3)cc2)cc1 | 34 µM | 0.144 µM
10 | CN(Cc1ccccc1)Cc1ccc(C(=O)c2ccc(OCCCCCN3CCCCC3)cc2)cc1 | 10.4 µM | 0.143 µM
11 | CCN(CC)CCCCCCOc1ccc(C(=O)c2ccc(CN(C)Cc3ccccc3)cc2)cc1 | 21.9 µM | 0.257 µM
12 | CN(Cc1ccccc1)Cc1ccc(C(=O)c2ccc(OCCCCCCN3CCCCC3)cc2)cc1 | 9.7 µM | 0.21 µM
13 | CCN(CC)CCCCCCCOc1ccc(C(=O)c2ccc(CN(C)Cc3ccccc3)cc2)cc1 | 23 µM | 0.81 µM
14 | CN(Cc1ccccc1)Cc1ccc(C(=O)c2ccc(OCCCCCCCN3CCCCC3)cc2)cc1 | 24.2 µM | 0.11 µM
15 | CCN(CC)CCc1ccc(Oc2ccc(C(=O)c3ccc(CN(C)Cc4ccccc4)cc3)cc2)cc1 | 209 µM | 0.13 µM
16 | COc1ccc(C(=O)c2ccc(CN(C)Cc3ccccc3)cc2)cc1 | > 10 µM | –
